Activity calls are given as the source filed them. The rule behind the calls is not given here.
Experiments:
[1] = Inhibition of alpha-glucosidase at 5.0 ug/ml
[2] = Inhibition of alpha-glucosidase at 10.0 ug/ml
[3] = Inhibition of alpha-glucosidase at 2.5 ug/ml
[4] = Inhibition of alpha-glucosidase at 1.25 ug/ml
[5] = Inhibition of alpha-glucosidase

Activity [1] | inhibition [2] | Activity [3] | Activity [4] | inhibition [1] | inhibition [3] | inhibition [4] | IC50 [5] | SMILES
inactive | 12.6% | inactive | inactive | – | – | – | – | COc1ccc([C@@H](CNC(=O)/C=C/c2ccccc2)OC)cc1
– | 30.1% | – | – | 13.2% | 8.1% | 1.3% | – | CC(C)=CCOc1ccc(/C=C/NC(=O)/C=C/c2ccccc2)cc1
– | 36% | – | – | 20.9% | 11.2% | 5.3% | – | COc1ccc([C@H](O)CNC(=O)/C=C/c2ccccc2)cc1
– | 8.8% | inactive | inactive | 3.4% | – | – | – | COc1ccc([C@@H](CNC(=O)/C=C\c2ccccc2)O[C@@H]2O[C@H](CO)[C@@H](O)[C@H](O)[C@H]2O)cc1
– | 56.5% | – | – | 25.2% | 7.5% | 1.7% | 35.8 µM | COc1ccc(/C=C/NC(=O)/C=C/c2ccccc2)cc1 [ANHYDROAEGELINE]
– | 17.6% | – | – | 11.6% | 6.1% | 4.6% | – | COc1ccc([C@@H](CNC(=O)/C=C/c2ccccc2)O[C@@H]2O[C@H](CO)[C@@H](O)[C@H](O)[C@H]2O)cc1
– | 19.7% | inactive | inactive | 15.9% | – | – | – | CC(C)=CCOc1ccc(CCNC(=O)/C=C/c2ccccc2)cc1
– | 13.5% | – | – | 11.4% | 7.8% | 1.5% | – | COc1ccc([C@H](O)CNC(=O)c2ccccc2)cc1

Reference: ChEMBL document CHEMBL1144180, “Phenylethyl cinnamides: a new series of alpha-glucosidase inhibitors from the leaves of Aegle marmelos” (Bioorg Med Chem Lett, 2008)
